Assay results reported in patent publication US9216197B2, “Topical formulations of tellurium-containing compounds” (BIOMAS LTD., priority 2006, dated 2015).

Tests used:
[1] = Heating the mixture of AS101 and propylene glycol; assay type: physicochemical
rats = settings: intravenous and intramuscular administration; cited from earlier work
[2] = Compatibility with aluminum tube packaging and metal equipment; assay type: physicochemical; settings: any contact with metal equipment
[3] = Storage of AS101 samples in scintillation glass bottles with aluminum laminated non-sealed caps; assay type: physicochemical; settings: 30 days at ambient temperature, scintillation glass bottle with non-sealed cap
Procedure: FIGS. 1A-B present images of the content and packaging components of the containers in which the AS101 powder (FIG. 1A) and the […] AS101 […] solution in DMSO (FIG. 1B) were provided, upon 30 days of storage at ambient temperature.
The white crystalline coarse powder was placed in a scintillation glass bottle with a non-sealed cap.
A 20% (by weight) solution of AS101 in DMSO was prepared. The solution appeared as a yellow liquid with a cloudy dispersion evolving upon mixing. […] However, some unidentified particles were observed.

[4] = AS101 solubility profile: solubility and stability (by coloration detection) in various solvents; assay type: physicochemical; settings: for Coloration / Solubility: 10% by weight AS101, ambient temperature, after 24 hours
Procedure: In a search for an improved formulation for topical application, the solubility and stability (by coloration detection) of AS101 in various hydrophilic and lipophilic solvents were determined. Since it is commonly known that topically applied formulations have better skin absorption and feel when the active pharmaceutical ingredient is solubilized or is in a molecular form, a desirable topical formulation should be characterized by high solubility and/or dispersability of the active ingredient therein.
Thus, solutions containing 10% by weight of AS101 in each solvent, were prepared by mixing AS101 in the solvent at ambient temperature.

[5] = as above; assay type: physicochemical; settings: hydroxycellulose
[6] = Microscopic evaluation of samples and polarized light crystallography; assay type: physicochemical
From the text: Microscopic Evaluation of Samples and Polarized Light Crystallography: Formulation Stability Measurements

For Cl[TeH]1(Cl)(Cl)OCCO1 [AS101, ammonium trichloro(dioxyethylene-O,O′)tellurate], the “Change upon heating the mixture of AS101 and propylene glycol” value [1] is given as “no change was observed”, the “LD50 relative to the immunologically effective dose” value (rats) is given as 500-1000 folds and the “Color upon contact with metal equipment” value [2] is given as “dark, black color”. For the same compound, the “State of the aluminum laminate cap after storage” value [3] was “chemically and physically decomposed”, the Coloration ([4]; 1% acetic acid) was “No” and the Solubility ([4]; 1% acetic acid) was “No”. The Coloration ([4]; Alkyl benzoate) was “No”, the Solubility ([4]; Alkyl benzoate) was “No” and the Coloration ([4]; Arlamol E) was “No”. For the same compound, the Solubility ([4]; Arlamol E) was “No”, the Coloration ([4]; Butyleneglycol) was “No” and the Solubility ([4]; Butyleneglycol) was “Yes”. For the same compound, the Coloration ([4]; DMI) was “No”, the Solubility ([4]; DMI) was “No” and the Coloration ([4]; DMSO) was “No”. The Solubility ([4]; DMSO) was “Yes”, the Coloration ([4]; Glycofurol) was “No” and the Solubility ([4]; Glycofurol) was “Yes”. For the same compound, the Coloration ([4]; Hexylene glycol) was “No”, the Solubility ([4]; Hexylene glycol) was “No” and the Coloration ([4]; IPM) was “No”. For the same compound, the Solubility ([4]; IPM) was “No”, the Coloration ([4]; MCT oil) was “No” and the Solubility ([4]; MCT oil) was “No”. The Coloration ([4]; Mineral oil) was “No”, the Solubility ([4]; Mineral oil) was “No” and the Coloration ([4]; PEG 200) was “No”. For the same compound, the Solubility ([4]; PEG 200) was “Yes”, the Coloration ([4]; PEG 400) was “No” and the Solubility ([4]; PEG 400) was “Yes”. For the same compound, the Coloration ([4]; Propylene Glycol) was “No”, the Solubility ([4]; Propylene Glycol) was “Yes” and the Coloration ([4]; Silicone oil) was “Black”. The Solubility ([4]; Silicone oil) was “No”, the Coloration ([4]; Transcutol) was “No” and the Solubility ([4]; Transcutol) was “Yes”. For the same compound, the “Precipitation or re-crystallization of AS101” value ([4]; amphiphilic glycolic solvents: PEG, butyleneglycol, gycofurol, propylene glycol and TRANSCUTOL, during the tested period) was “no precipitation or re-crystallization”, the “Solution coloration (compatibility)” value [5] was “unacceptable solution coloration” and the “Crystals under polarized light” value ([6]; polarized light) was “distinct crystals producing birefrigerence”. The Particle diameter ([6]; powder) was 20-40 microns.
